Source: ChEMBL document CHEMBL3392986, “Hydroxamic acids block replication of hepatitis C virus” (J Med Chem, 2015)
The source made the active and inactive calls. The rule behind the calls is not given here.

Biological target: Histone deacetylase 2 (Homo sapiens) (UniProt Q92769)
Assay: Inhibition of full length C-terminal His-tagged human HDAC2 expressed in baculovirus expression system assessed as inhibition of fluorophore 7-amino-4-methylcoumarin release by fluorescence assay

Histone deacetylase 2 (Homo sapiens), sequence (Q92769 whole entry): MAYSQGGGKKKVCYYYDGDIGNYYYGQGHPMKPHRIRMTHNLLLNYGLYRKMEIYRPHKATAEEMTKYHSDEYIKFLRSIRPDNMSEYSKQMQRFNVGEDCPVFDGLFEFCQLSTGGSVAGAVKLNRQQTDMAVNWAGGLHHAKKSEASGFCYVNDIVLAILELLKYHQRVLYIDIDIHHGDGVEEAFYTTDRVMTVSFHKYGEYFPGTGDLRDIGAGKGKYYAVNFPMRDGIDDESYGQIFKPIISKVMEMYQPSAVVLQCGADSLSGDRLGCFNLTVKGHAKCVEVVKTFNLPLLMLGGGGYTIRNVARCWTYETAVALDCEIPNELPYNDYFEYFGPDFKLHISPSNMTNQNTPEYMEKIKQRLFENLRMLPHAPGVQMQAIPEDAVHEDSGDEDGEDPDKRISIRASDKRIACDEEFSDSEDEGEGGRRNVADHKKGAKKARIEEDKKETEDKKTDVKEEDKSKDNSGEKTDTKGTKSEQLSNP

O=C(NO)c1sc2ccccc2c1S(=O)(=O)c1ccccc1
inhibition: inactive
